According to US8283373B2, “Inhibitors of cytosolic phospholipase A2” (Pfizer Inc., priority 2005, dated 2012):
Blank lines part the entries; values can stand above or below the molecule they belong to.

How the values were obtained:
[1] = tested on: atherosclerosis in ApoE KO mice; assay: ApoE KO mouse model of atherosclerosis (20 weeks); assay type: in vivo; details: for decrease of atherosclerotic plaque burden at the aortic sinus vs control / atherosclerotic plaque burden at the aortic sinus: 20 weeks; for atherosclerotic plaque burden at the aortic sinus: control 519220±100694; for Atherosclerotic Lesions Along the Aorta (percent lesion area), % Decrease vs Control: ns = not significant
Description: The apolipoprotein E (ApoE) knockout mouse was created by gene targeting in embryonic stem cells to disrupt the ApoE gene. ApoE is a glycoprotein that is responsible for the uptake of chylomicrons and VLDL particles by the liver, thereby preventing the accumulation of cholesterol rich remnants in the blood stream.
Six week old male ApoE KO mice were treated with 4-{3-[1-benzhydryl-5-chloro-2-(2-{[(3,4-dichlorobenzyl)sulfonyl]amino}ethyl)-1H-indol-3-yl]propyl}benzoic acid (Compound C).

[2] = tested on: Human platelet aggregation; assay: Platelet Function Analyzer (PFA-100) study; assay type: cell-based; details: whole human blood, Collagen/Epinephrine cartridges, 1.25 μg/ml
Description: Human platelet aggregation was studied using the platelet function analyzer (PFA-100®). Human blood was collected from volunteers who had denied taking any platelet inhibitory medications over the previous two weeks. Blood was collected in 3.2% sodium citrate Vacutainer tubes (Becton Dickinson). Tubes were inverted 5 times and the blood was transferred to 15 ml polypropylene conical tubes. […] Tubes were inverted 10 times to mix, and allowed to sit at room temperature for 10 minutes prior to run in PFA-100. The manufacturers protocol was followed for the PFA-100 using Collagen/Epinephrine cartridges (0.5% DMSO alone in whole blood gave closure times of 125+/−13.9 seconds). Maximum closure time is 300 seconds, as set by the manufacturer.
All compounds were efficacious in the platelet function assay.

serum thromboxane B2 = assay: Thromboxane B2 levels in the ApoE KO mouse model; assay type: in vivo; details: ApoE KO mice, 3.3 mg/g chow for two days; vehicle 76.1±17.3
Description: Blood was collected through the retro-orbital siunus and left to coagulate at 37° C. for one hour. Serum was then isolated and assayed for thromboxane B2 by ELISA.
In a separate experiment, ApoE KO mice were dosed with vehicle or the compound of Example 25 at 10 mg/kg by oral gavage. Blood was collected through the retro-orbital siunus and left to coagulate at 37° C. for one hour. Serum was then isolated and assayed for thromboxane B2 by ELISA.

[3] = Drug exposure in ApoE KO mice fed supplemented chow; assay type: in vivo, mouse; details: chow supplemented at 3.3 mg/g
[4] = tested on: primary dopaminergic neurons; assay: MPP+ exposure in dopaminergic neurons; assay type: cell-based, rat; details: 10 μM MPP+ 60 minutes, control 100, MPP+ alone 56.6
Description: Primary dopaminergic neurons were isolated from E15 rat embryos as described in Pong K., et al., (1997) J. Neurochem. 69 986-994. Briefly, the ventral mesencephalon was isolated and tissue was pooled in ice-cold phosphate buffer saline (PBS) without Ca^2+ and Mg^2+. The tissue was transferred to an enzymatic dissociation media containing 20 IU/ml papain in Earle's balanced salt solution (Worthington Biochemical, Freehold, N.J.) and incubated for 30 minutes at 37° C. After enzymatic dissociation, the papain solution was aspirated and the tissue mechanically triturated with a fire-polished Pasteur pipette in complete media [Neurobasal Medium with B-27 supplement (Gibco, Grand Island, N.Y.), penicillin/streptomycin, aphidicolin, glutamate] containing 2,000 IU/ml DNase and 10 mg/ml ovomucoid protease inhibitor. Single-cell suspensions in complete media were plated on pre-coated poly-L-ornithine/laminin 24-well plates (Becton-Dickinson, Bedford, Mass.) at a density of 5.0×10^5 cells/well. Cells were maintained for one week prior to experimentation.
Cultures were exposed to 10 μM MPP^+ for 60 minutes. After the exposure, fresh media was exchanged and fresh compound was added. Dopaminergic neuron viability was determined 24 hours later by measuring ^3H-dopamine uptake as described in Pong et al., 1997, supra.

[5] = tested on: Ascaris suum antigen-induced bronchoconstriction and AHR; details: literature (Abraham et al. 1992; Jones et al. 1995); cited from earlier work

maximum drug exposure [3]: ~500 ng/mL
SMILES: O=C(O)c1ccc(CCCc2c(CCNS(=O)(=O)Cc3ccc(Cl)c(Cl)c3)n(C(c3ccccc3)c3ccccc3)c3ccc(Cl)cc23)cc1 [Compound C, 4-{3-[1-benzhydryl-5-chloro-2-(2-{[(3,4-dichlorobenzyl)sulfonyl]amino}ethyl)-1H-indol-3-yl]propyl}benzoic acid]
Serum thromboxane B2 levels compared to control animals ([1]; 1.3 mg/g and 3.3 mg/g chow, after 9 and 20 weeks of treatment): significantly decreased
percent of total animals with Stage 3 (advanced fibrous plaque) ([1]; 1.3 mg/g chow): 33%
percent of total animals with Stage 4 (stable complicated lesion) ([1]; 1.3 mg/g chow): 56%
percent of total animals with Stage 5 (unstable complicated lesion) ([1]; 1.3 mg/g chow): 11%
decrease of atherosclerotic plaque burden at the aortic sinus vs control ([1]; 1.3 mg/g chow, p<0.05): 32.7%
atherosclerotic plaque burden at the aortic sinus ([1]; 1.3 mg/g chow): 349582±132685 μm^2
Serum Thromboxane B2 Levels, % Decrease vs Control ([1]; 1.3 mg/g chow, after 9 weeks of treatment): 52.5%
Serum Thromboxane B2 Levels, % Decrease vs Control ([1]; 1.3 mg/g chow, after 20 weeks of treatment): 36.6%
Atherosclerotic Lesions Along the Aorta (percent lesion area), % Decrease vs Control ([1]; 1.3 mg/g chow): 32.4 ns %
percent of total animals with Stage 1 (fibrofatty lesion) ([1]; 3.3 mg/g chow): 9%
percent of total animals with Stage 2 (early fibrous plaque) ([1]; 3.3 mg/g chow): 18%
percent of total animals with Stage 3 (advanced fibrous plaque) ([1]; 3.3 mg/g chow): 37%
percent of total animals with Stage 4 (stable complicated lesion) ([1]; 3.3 mg/g chow): 27%
percent of total animals with Stage 5 (unstable complicated lesion) ([1]; 3.3 mg/g chow): 9%
decrease of atherosclerotic plaque burden at the aortic sinus vs control ([1]; 3.3 mg/g chow, p<0.001): 45.6%
atherosclerotic plaque burden at the aortic sinus ([1]; 3.3 mg/g chow): 282697±146462 μm^2
Serum Thromboxane B2 Levels, % Decrease vs Control ([1]; 3.3 mg/g chow, after 9 weeks of treatment): 61.2%
Serum Thromboxane B2 Levels, % Decrease vs Control ([1]; 3.3 mg/g chow, after 20 weeks of treatment): 49.5%
Atherosclerotic Lesions Along the Aorta (percent lesion area), % Decrease vs Control ([1]; 3.3 mg/g chow): 35.2 ns %
atherosclerotic lesion complexity at the aortic sinus vs control ([1]; 1.3 and 3.3 mg/g chow): reduced
PFA-100 closure time [2]: increased closure time
serum Thromboxane concentration (serum thromboxane B2): 33.5 ± 11.6 ng/mL
dopaminergic neuron viability (3H-dopamine uptake), Avg. ([4]; 0.3 μM): 68.6
dopaminergic neuron viability (3H-dopamine uptake), Avg. ([4]; 1 μM): 70.6
dopaminergic neuron viability (3H-dopamine uptake), Avg. ([4]; 3 μM): 75.9
dopaminergic neuron viability (3H-dopamine uptake), Avg. ([4]; 10 μM): 79.6

SMILES: CC(c1cc2ccccc2s1)N(O)C(N)=O (stereo not shown) [zileuton]
effect on antigen-induced airway responses in the sheep model [5]: blocks antigen-induced late airway responses, inflammation, and AHR
